Measurements published in US9085603B2, “Progesterone receptor antagonists” (Bayer Intellectual Property GmbH, priority 2010, dated 2015).
pIC50: −log10 of the molar value.

Molecular target: T1, human progesterone receptor A (Homo sapiens, UniProt P06401)
T1 construct: expressed in transfected cells; host or cells: SK-N-MC human neuroblastoma cells, stably transfected with pRChPR-A-neo and pMMTV-LUC
T1 sequence (P06401 1-769 isoform P06401-2): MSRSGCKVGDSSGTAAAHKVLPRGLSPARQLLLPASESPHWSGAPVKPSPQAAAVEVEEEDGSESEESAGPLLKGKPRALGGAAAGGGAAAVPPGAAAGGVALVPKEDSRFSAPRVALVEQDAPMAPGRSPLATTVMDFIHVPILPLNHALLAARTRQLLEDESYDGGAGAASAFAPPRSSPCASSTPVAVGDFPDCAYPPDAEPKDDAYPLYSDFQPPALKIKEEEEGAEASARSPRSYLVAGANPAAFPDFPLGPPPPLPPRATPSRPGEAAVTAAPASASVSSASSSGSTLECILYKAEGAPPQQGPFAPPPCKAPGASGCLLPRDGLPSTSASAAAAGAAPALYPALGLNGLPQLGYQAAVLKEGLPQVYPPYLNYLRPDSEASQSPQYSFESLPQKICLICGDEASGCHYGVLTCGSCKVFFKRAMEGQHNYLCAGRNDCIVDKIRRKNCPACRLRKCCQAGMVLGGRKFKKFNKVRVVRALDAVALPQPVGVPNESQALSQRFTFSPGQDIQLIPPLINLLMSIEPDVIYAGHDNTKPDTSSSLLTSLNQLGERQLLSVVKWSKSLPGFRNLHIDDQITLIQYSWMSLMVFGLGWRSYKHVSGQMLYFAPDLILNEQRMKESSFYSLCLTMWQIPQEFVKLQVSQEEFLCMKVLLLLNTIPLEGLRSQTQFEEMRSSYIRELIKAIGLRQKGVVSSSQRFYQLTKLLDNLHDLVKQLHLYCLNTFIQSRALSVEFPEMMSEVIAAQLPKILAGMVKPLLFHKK
Assay: Progesterone receptor antagonistic effect in stably transfected SK-N-MC cells, MTV-LUC reporter (PR-A)
Assay type: cell-based
Conditions: antagonism of 0.1 nmol/l promegestone, luciferase reporter, 24 hours
Procedure: Progesterone Receptor Antagonistic Effect in Stable Transfectants of Human Neuroblastoma Cells (SK-N-MC cells) with the Human Progesterone A or Progesterone B Receptor and a MTV-LUC Reporter Construct
SK-N-MC cells (human neuroblastoma cells), which have been stably transfected with plasmids which express the human progesterone receptor B (pRChPR-B-neo) or the human progesterone receptor A (pRChPR-A-neo) and a reporter construct (pMMTV-LUC), were incubated for 24 hours either in the absence (negative control) or in the presence of increasing amounts of the particular test compound (0.01 nmol/l, 0.1 nmol/l, 1 nmol/l, 10 nmol/l, 100 nmol/l and 1 μmol/l) in order to determine the agonistic efficacy. As a positive control of the reporter gene induction, the cells were treated with the synthetic gestagen promegestone (0.01 nmol/l, 0.1 nmol/l, 1 nmol/l, 10 nmol/l, 100 nmol/l and 1 μmol/l). To determine the antagonistic activity, the cells were treated with 0.1 nmol/l of promegestone and additionally with increasing amounts of the particular test compound (0.01 nmol/l, 0.1 nmol/l, 1 nmol/l, 10 nmol/l, 100 nmol/l and 1 μmol/l). The activity of the reporter gene LUC (LUC=luciferase) was determined in the cell lysates and measured as RLU (relative light units). All measurement values are given as percentage efficacy and as EC50 or IC50 concentrations.

| pIC50 | Compound |
| --- | --- |
| 8.89 | C[C@]12C[C@H](c3ccc(CNc4ccc(C(=O)Nc5ccccc5)cc4)cc3)C3=C4CCC(=O)C=C4CC[C@H]3[C@@H]1CC[C@@]2(O)C(F)(F)C(F)(F)F [Example 54, 4-({4-[(11β,17β)-17-Hydroxy-3-oxo-17-(pentafluoroethyl)estra-4,9-dien-11-yl]benzyl}amino)-N-phenylbenzamide] |
| 8.33 | CN(Cc1ccncc1)Cc1ccc([C@H]2C[C@@]3(C)[C@@H](CC[C@@]3(O)C(F)(F)C(F)(F)F)[C@@H]3CCC4=CC(=O)CCC4=C32)cc1 [Example 26, (11β,17β)-17-Hydroxy-11-(4-{[methyl(pyridin-4-ylmethyl)amino]methyl}phenyl)-17-(pentafluoroethyl)estra-4,9-dien-3-one] |
| 8.51 | C[C@]12C[C@H](c3ccc(CN4CCN(c5ccccc5)CC4)cc3)C3=C4CCC(=O)C=C4CC[C@H]3[C@@H]1CC[C@@]2(O)C(F)(F)C(F)(F)F [Example 25, (11β,17β)-17-Hydroxy-17-(pentafluoroethyl)-11-{4-[(4-phenylpiperazin-1-yl)methyl]phenyl}estra-4,9-dien-3-one] |
| 8.63 | C[C@]12C[C@H](c3ccc(CN4CCN(Cc5ccncc5)CC4)cc3)C3=C4CCC(=O)C=C4CC[C@H]3[C@@H]1CC[C@@]2(O)C(F)(F)C(F)(F)F [Example 37, (11β,17β)-17-Hydroxy-17-(pentafluoroethyl)-11-(4-{[4-(pyridin-4-ylmethyl)piperazin-1-yl]methyl}phenyl)estra-4,9-dien-3-one] |
| 8.68 | C[C@]12C[C@H](c3ccc(CNc4ccc(Cl)cc4)cc3)C3=C4CCC(=O)C=C4CCC3C1CC[C@@]2(O)C(F)(F)C(F)(F)F (stereo partly drawn) [Example 23, (11β,17β)-11-(4-{[(4-Chlorophenyl)amino]methyl}phenyl)-17-hydroxy-17-(pentafluoroethyl)estra-4,9-dien-3-one] |
| 8.79 | C[C@]12C[C@H](c3ccc(CNc4ccccc4)cc3)C3=C4CCC(=O)C=C4CCC3C1CC[C@@]2(O)C(F)(F)C(F)(F)F (stereo partly drawn) [Example 20, (11β,17β)-11-[4-(Anilinomethyl)phenyl]-17-hydroxy-17-(pentafluoroethyl)estra-4,9-dien-3-one] |
| 9.03 | C[C@]12C[C@H](c3ccc(CNc4cccnc4)cc3)C3=C4CCC(=O)C=C4CC[C@H]3[C@@H]1CC[C@@]2(O)C(F)(F)C(F)(F)F [Example 19, (11β,17β)-17-Hydroxy-17-(pentafluoroethyl)-11-{4-[(pyridin-3-ylamino)methyl]phenyl}estra-4,9-dien-3-one] |
| 8.63 | C[C@]12C[C@H](c3ccc(CN4CCc5ccccc5C4)cc3)C3=C4CCC(=O)C=C4CCC3C1CC[C@@]2(O)C(F)(F)C(F)(F)F (stereo partly drawn) [Example 30, (11β,17β)-11-[4-(3,4-Dihydroisoquinolin-2(1H)-ylmethyl)phenyl]-17-hydroxy-17-(pentafluoroethyl)estra-4,9-dien-3-one] |
| 8.89 | CN(Cc1ccc([C@H]2C[C@@]3(C)[C@@H](CC[C@@]3(O)C(F)(F)C(F)(F)F)[C@@H]3CCC4=CC(=O)CCC4=C32)cc1)c1ccccc1 [Example 48, (11β,17β)-17-Hydroxy-11-(4-{[methyl(phenyl)amino]methyl}phenyl)-17-(pentafluoroethyl)estra-4,9-dien-3-one] |
| 8.30 | COC(=O)c1ccccc1NCc1ccc([C@H]2C[C@@]3(C)[C@@H](CC[C@@]3(O)C(F)(F)C(F)(F)F)[C@@H]3CCC4=CC(=O)CCC4=C32)cc1 [Example 28, Methyl 2-({4-[(11β,17β)-17-hydroxy-3-oxo-17-(pentafluoroethyl)estra-4,9-dien-11-yl]benzyl}amino)benzoate] |
| 7.95 | C[C@]12C[C@H](c3ccc(CN4CCC(c5ccccc5)CC4)cc3)C3=C4CCC(=O)C=C4CC[C@H]3[C@@H]1CC[C@@]2(O)C(F)(F)C(F)(F)F [Example 41, (11β,17β)-17-Hydroxy-17-(pentafluoroethyl)-11-{4-[(4-phenylpiperidin-1-yl)methyl]phenyl}estra-4,9-dien-3-one] |
| 8.60 | COc1cccc(NCc2ccc([C@H]3C[C@@]4(C)[C@@H](CC[C@@]4(O)C(F)(F)C(F)(F)F)[C@@H]4CCC5=CC(=O)CCC5=C43)cc2)c1 [Example 22, (11β,17β)-17-Hydroxy-11-(4-{[(3-methoxyphenyl)amino]methyl}phenyl)-17-(pentafluoroethyl)estra-4,9-dien-3-one] |
| 7.43 | C[C@]12C[C@H](c3ccc(CN4CCCC4)cc3)C3=C4CCC(=O)C=C4CC[C@H]3[C@@H]1CC[C@@]2(O)C(F)(F)C(F)(F)F [Example 46, (11β,17β)-17-Hydroxy-17-(pentafluoroethyl)-11-[4-(pyrrolidin-1-ylmethyl)phenyl]estra-4,9-dien-3-one] |
| 8.75 | COC(=O)c1cccc(NCc2ccc([C@H]3C[C@@]4(C)[C@@H](CC[C@@]4(O)C(F)(F)C(F)(F)F)[C@@H]4CCC5=CC(=O)CCC5=C43)cc2)c1 [Example 39, Methyl 3-({4-[(11β,17β)-17-hydroxy-3-oxo-17-(pentafluoroethyl)estra-4,9-dien-11-yl]benzyl}amino)benzoate] |
| 7.29 | CCN(CC)Cc1ccc([C@H]2C[C@@]3(C)C(CC[C@@]3(O)C(F)(F)C(F)(F)F)C3CCC4=CC(=O)CCC4=C32)cc1 (stereo partly drawn) [Example 24, (11β,17β)-11-{4-[(Diethylamino)methyl]phenyl}-17-hydroxy-17-(pentafluoroethyl)estra-4,9-dien-3-one] |
| 9.28 | CN(C)C(=O)N1CCN(Cc2ccc([C@H]3C[C@@]4(C)[C@@H](CC[C@@]4(O)C(F)(F)C(F)(F)F)[C@@H]4CCC5=CC(=O)CCC5=C43)cc2)CC1 [Example 42, 4-{4-[(11β,17β)-17-Hydroxy-3-oxo-17-(pentafluoroethyl)estra-4,9-dien-11-yl]benzyl}-N,N-dimethylpiperazine-1-carboxamide] |
| 7.47 | C[C@]12C[C@H](c3ccc(CN4CCN(CCN5CCCC5)CC4)cc3)C3=C4CCC(=O)C=C4CC[C@H]3[C@@H]1CC[C@@]2(O)C(F)(F)C(F)(F)F [Example 36, (11β,17β)-17-Hydroxy-17-(pentafluoroethyl)-11-[4-({4-[2-(pyrrolidin-1-yl)ethyl]piperazin-1-yl}methyl)phenyl]estra-4,9-dien-3-one] |
| 8.45 | CN(C)CCN(C)Cc1ccc([C@H]2C[C@@]3(C)C(CC[C@@]3(O)C(F)(F)C(F)(F)F)C3CCC4=CC(=O)CCC4=C32)cc1 (stereo partly drawn) [Example 27, (11β,17β)-11-[4-({[2-(Dimethylamino)ethyl](methyl)amino}methyl)phenyl]-17-hydroxy-17-(pentafluoroethyl)estra-4,9-dien-3-one] |
| 8.89 | C[C@]12C[C@H](c3ccc(CNc4ccccc4C(N)=O)cc3)C3=C4CCC(=O)C=C4CCC3C1CC[C@@]2(O)C(F)(F)C(F)(F)F (stereo partly drawn) [Example 49, 2-({4-[(11β,17β)-17-Hydroxy-3-oxo-17-(pentafluoroethyl)estra-4,9-dien-11-yl]benzyl}arnino)benzamide] |
| 8.54 | C[C@]12C[C@H](c3ccc(CN4CCN(Cc5ccccn5)CC4)cc3)C3=C4CCC(=O)C=C4CC[C@H]3[C@@H]1CC[C@@]2(O)C(F)(F)C(F)(F)F [Example 43, (11β,17β)-17-Hydroxy-17-(pentafluoroethyl)-11-(4-{[4-(pyridin-2-ylmethyl)piperazin-1-yl]methyl}phenyl)estra-4,9-dien-3-one] |
| 8.57 | C[C@]12C[C@H](c3ccc(CNCc4ccncc4)cc3)C3=C4CCC(=O)C=C4CC[C@H]3[C@@H]1CC[C@@]2(O)C(F)(F)C(F)(F)F [Example 47, (11β,17β)-17-Hydroxy-17-(pentafluoroethyl)-11-(4-{[(pyridin-4-ylmethyl)amino]methyl}phenyl)estra-4,9-dien-3-one] |
| 8.78 | CNC(=O)CN1CCN(Cc2ccc([C@H]3C[C@@]4(C)[C@@H](CC[C@@]4(O)C(F)(F)C(F)(F)F)[C@@H]4CCC5=CC(=O)CCC5=C43)cc2)CC1 [Example 45, 2-(4-{4-[(11β,17β)-17-Hydroxy-3-oxo-17-(pentafluoroethyl)estra-4,9-dien-11-yl]benzyl}piperazin-1-yl)-N-methylacetamide] |
